{"source": "patent US10011814B2", "about": "“Salt formulations for the fermentation of marine microorganisms” (Triphase Research and Development I Corp., priority 2006, dated 2018)", "key": {"[1]": {"tested_on": "Salinispora tropica CNB440", "conditions": "CNB440, day 6 production culture", "method": "(§1) The first seed cultures (100 mL medium) in 500-mL Erlenmeyer flasks were incubated for 96 hours before inoculating 5 mL of the first seed culture into the second seed medium with the same composition as the first seed medium. The second seed cultures (100 mL medium in 500-mL Erlenmeyer flask) were incubated for 48 hours before inoculating 5 mL of the second seed culture into the production medium (100 mL in a 500-mL Erlenmeyer flask).\n(§2) Per liter of DI H2O, the production medium consisted of: 10 g Starch, 4 g Hy Soy, 4 g Yeast Extract, 1 g CaCO3, 40 mg Fe2(SO4)3, and 100 mg KBr. The production medium was then supplemented with a chemically defined salt formulation consisted of the following common salt components along with different levels of NaCl:\n(§3) The NaCl levels used were 0, 5, 10, 15, 20, 24 and 30 g/L. About […], sterile XAD-7 resin slurry was added to the production cultures in a final concentration of 20 g/L. The production culture was then further incubated and harvested at various time points to determine productivity."}, "[2]": {"tested_on": "Salinispora tropica CNB476", "conditions": "CNB476, day 6 production culture", "method": "as §1, §2, §3"}, "[3]": {"tested_on": "Salinispora tropica NPS021184", "conditions": "NPS21184, day 6 production culture", "method": "as §1, §2, §3"}}, "note": "Read-outs that look alike come from different tables or passages of the source."}
{"smiles": "[Cl-].[Na+]", "note": "[NaCl]", "values": [{"measurement": "Packed Cell Volume", "setting": "[1]; NaCl 0 g/L", "result": 0, "unit": "%"}, {"measurement": "Packed Cell Volume", "setting": "[1]; NaCl 5 g/L", "result": 5, "unit": "%"}, {"measurement": "Packed Cell Volume", "setting": "[1]; NaCl 10 g/L", "result": 5, "unit": "%"}, {"measurement": "Packed Cell Volume", "setting": "[1]; NaCl 15 g/L", "result": 4, "unit": "%"}, {"measurement": "Packed Cell Volume", "setting": "[1]; NaCl 20 g/L", "result": 5, "unit": "%"}, {"measurement": "Packed Cell Volume", "setting": "[1]; NaCl 24 g/L", "result": 5, "unit": "%"}, {"measurement": "Packed Cell Volume", "setting": "[1]; NaCl 30 g/L", "result": 5, "unit": "%"}, {"measurement": "Packed Cell Volume", "setting": "[2]; NaCl 0 g/L", "result": 0, "unit": "%"}, {"measurement": "Packed Cell Volume", "setting": "[2]; NaCl 5 g/L", "result": 2, "unit": "%"}, {"measurement": "Packed Cell Volume", "setting": "[2]; NaCl 10 g/L", "result": 5, "unit": "%"}, {"measurement": "Packed Cell Volume", "setting": "[2]; NaCl 15 g/L", "result": 5, "unit": "%"}, {"measurement": "Packed Cell Volume", "setting": "[2]; NaCl 20 g/L", "result": 6, "unit": "%"}, {"measurement": "Packed Cell Volume", "setting": "[2]; NaCl 24 g/L", "result": 6, "unit": "%"}, {"measurement": "Packed Cell Volume", "setting": "[2]; NaCl 30 g/L", "result": 6, "unit": "%"}, {"measurement": "Packed Cell Volume", "setting": "[3]; NaCl 0 g/L", "result": 0, "unit": "%"}, {"measurement": "Packed Cell Volume", "setting": "[3]; NaCl 5 g/L", "result": 6, "unit": "%"}, {"measurement": "Packed Cell Volume", "setting": "[3]; NaCl 10 g/L", "result": 6, "unit": "%"}, {"measurement": "Packed Cell Volume", "setting": "[3]; NaCl 15 g/L", "result": 6, "unit": "%"}, {"measurement": "Packed Cell Volume", "setting": "[3]; NaCl 20 g/L", "result": 5, "unit": "%"}, {"measurement": "Packed Cell Volume", "setting": "[3]; NaCl 24 g/L", "result": 5, "unit": "%"}, {"measurement": "Packed Cell Volume", "setting": "[3]; NaCl 30 g/L", "result": 5, "unit": "%"}]}
